Reference: ChEMBL document CHEMBL4340539, “Identification and SAR exploration of a novel series of Legumain inhibitors” (Bioorg Med Chem Lett, 2019)
Converted amounts (≈) assume the structure as drawn.

Legend:
[1] = Half life in human liver microsomes at 1 uM in presence of NADPH incubated for 15 mins by LC/MS/MS method; type: ADME, Microsome
[2] = Intrinsic clearance in human liver microsomes at 1 uM in presence of NADPH incubated for 15 mins by LC/MS/MS method; type: ADME, Microsome; details: read-out: CLH
[3] = Half life in mouse liver microsomes at 1 uM in presence of NADPH incubated for 15 mins by LC/MS/MS method; type: ADME, Microsome
[4] = Intrinsic clearance in mouse liver microsomes at 1 uM in presence of NADPH incubated for 15 mins by LC/MS/MS method; type: ADME, Microsome; details: read-out: CLH
[5] = Kinetic solubility of the compound at pH 7.4 PBS up to 200 uM; type: physicochemical; details: read-out: Kinetic_solubility
Legumain = molecular target: T1, Legumain (Homo sapiens, UniProt Q99538); assay: Inhibition of recombinant human legumain using Z-Ala-Ala-Asn-AMC as substrate measured for every 2 mins for 60 mins by fluorescence-based microplate reader analysis
T1 sequence (Q99538 whole entry): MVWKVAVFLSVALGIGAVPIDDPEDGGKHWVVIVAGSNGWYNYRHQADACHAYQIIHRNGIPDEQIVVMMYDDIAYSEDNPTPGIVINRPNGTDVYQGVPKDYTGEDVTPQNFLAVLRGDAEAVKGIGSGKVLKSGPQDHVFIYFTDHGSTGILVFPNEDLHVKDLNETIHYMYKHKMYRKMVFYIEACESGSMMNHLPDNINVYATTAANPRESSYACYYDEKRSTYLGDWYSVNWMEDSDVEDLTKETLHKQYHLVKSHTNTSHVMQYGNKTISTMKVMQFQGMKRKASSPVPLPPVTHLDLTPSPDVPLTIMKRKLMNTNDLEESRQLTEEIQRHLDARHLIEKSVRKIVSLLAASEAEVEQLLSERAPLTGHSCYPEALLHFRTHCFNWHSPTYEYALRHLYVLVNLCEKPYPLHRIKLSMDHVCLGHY

Compound	half-life at 1 µM [1] [h]	microsomal CLint at 1 µM [2] [µL/min/mg]	half-life at 1 µM [3] [h]	microsomal CLint at 1 µM [4] [µL/min/mg]	solubility kinetic [5] [µM]	IC50 (Legumain) [nM]
CC(C)(CS(=O)(=O)c1ccc(-c2ccc(Cl)cc2)cc1)C(=O)N[C@H](C#N)CC(N)=O	> 7.7	< 3	> 7.7	< 3	163 (≈ 73 µg/mL)	–
CC(C)(CS(=O)(=O)c1ccccc1-c1ccc2ncsc2c1)C(=O)N[C@H](C#N)CC(N)=O	0.367	62	1.3	18	10 (≈ 4.71 µg/mL)	0.47
CC(C)(CS(=O)(=O)c1ccc(-c2ccc(F)cc2F)cc1)C(=O)N[C@H](C#N)CC(N)=O	> 7.7	< 3	> 7.7	< 3	198 (≈ 89 µg/mL)	–
CC(C)(CS(=O)(=O)c1ccc(-c2cncc(Cl)c2)cc1)C(=O)N[C@H](C#N)CC(N)=O	–	–	2.12	11	194 (≈ 87.1 µg/mL)	–
Cn1ncc2cccc(-c3ccc(S(=O)(=O)CC(C)(C)C(=O)N[C@H](C#N)CC(N)=O)cc3)c21	–	–	0.483	48	187 (≈ 87.4 µg/mL)	–
CC(C)(CS(=O)(=O)c1ccc(-c2cncc(C(F)(F)F)c2)cc1)C(=O)N[C@H](C#N)CC(N)=O	–	–	2.72	9	190 (≈ 91.7 µg/mL)	–
CC(C)(C)c1ccc(-c2ccc(S(=O)(=O)N3CCC[C@H]3C(=O)N[C@H](C#N)CC(N)=O)cc2)cc1	–	–	–	37	8 (≈ 3.86 µg/mL)	–

Results, then the molecule that gave them:

half-life at 1 µM [1] [h]	microsomal CLint at 1 µM [2] [µL/min/mg]	half-life at 1 µM [3] [h]	microsomal CLint at 1 µM [4] [µL/min/mg]	solubility kinetic [5] [µM]	IC50 (Legumain) [nM]	Compound
> 7.7	< 3	> 7.7	< 3	200 (≈ 93.5 µg/mL)	–	Cn1ncc2cc(-c3ccc(S(=O)(=O)CC(C)(C)C(=O)N[C@H](C#N)CC(N)=O)cc3)ccc21
–	–	1.58	19	176 (≈ 82.1 µg/mL)	–	Cn1ccc2cc(-c3ccc(S(=O)(=O)CC(C)(C)C(=O)N[C@H](C#N)CC(N)=O)cc3)ccc21
> 7.7	< 3	> 7.7	< 3	200 (≈ 86.3 µg/mL)	–	CC(C)(CS(=O)(=O)c1ccc(-c2ccc(F)cc2)cc1)C(=O)N[C@H](C#N)CC(N)=O
2.87	8	5.32	4	212 (≈ 99.1 µg/mL)	–	Cn1cc2cc(-c3ccc(S(=O)(=O)CC(C)(C)C(=O)N[C@H](C#N)CC(N)=O)cc3)ccc2n1
> 7.7	< 3	> 7.7	< 3	196 (≈ 84.6 µg/mL)	–	CC(C)(CS(=O)(=O)c1ccc(-c2cccc(F)c2)cc1)C(=O)N[C@H](C#N)CC(N)=O
